Measurements: patent publication US20200055044A1, “METHODS AND SYSTEMS FOR MICRO PLATELET FUNCTION TESTING USING AN INTEGRATED MINIATURIZED PLATELET FUNCTION ANALYZER” (Atantares Corp., priority 2016, published 2020)

Test system: platelets in fresh anticoagulated human blood
Experiment: impedance-based micro platelet function test with microfabricated 3D electrodes in a microfluidic channel
Format: cell-based
Details: 100 μM ADP; human blood with Calcium Chloride and 10 μM PPACK; flow rate 25 μL/min; six frequencies 20 Hz to 2 MHz; logged for 2000 s; FIG. 16
Text: Although not shown explicitly, electrodes of different heights (125 μm, 250 μm), diameters (100 μm, 250 μm, 500 μm), and gaps in-between electrodes (500 μm, 1000 μm) were fabricated using the same process. Pairs of 3D electrodes where each electrode comprises a number of electrically connected metal-coated cylindrical cores arranged in a grid were also fabricated. […] Wires soldered to the patterned metal pads on the substrates were used to connect the 3D electrodes to an Agilent E4980A LCR meter. FIG. 16 show a set 1600 of experimental data using electrodes fabricated according to the process discussed above. 1 mL of fresh anticoagulated human blood, obtained within 4 hrs of use, was mixed with 65 μL of 100 mg/mL Calcium Chloride and 10 μM of D-Phenylalanyl-prolyl-arginyl chloromethyl ketone (PPACK). […] The impedance of the electrodes was continuously monitored and logged at six different frequencies (20 Hz, 200 Hz, 1 kHz, 15 kHz, 200 kHz, 2 MHz) using a custom MATLAB program running on a computer interfaced to the LCR meter. […] The peak impedance values reached or the areas under the impedance-time curves or other measures from these curves may be analyzed and interpreted as indications of platelet activity in response to the modifying reagent added (e.g. ADP). […]

Nc1ncnc2c1ncn2[C@@H]1O[C@H](COP(=O)(O)OP(=O)(O)O)[C@@H](O)[C@H]1O [ADP, adenosine diphosphate]
change in electrode impedance after addition of platelet activation reagent: increase in electrode impedances at all frequencies
